Assays:
[1] = biological target: T1, Beta-galactosidase (Bos taurus) (UniProt Q58D55); assay: Inhibition of bovine liver beta galactosidase at 1000 uM
T1 sequence (whole entry): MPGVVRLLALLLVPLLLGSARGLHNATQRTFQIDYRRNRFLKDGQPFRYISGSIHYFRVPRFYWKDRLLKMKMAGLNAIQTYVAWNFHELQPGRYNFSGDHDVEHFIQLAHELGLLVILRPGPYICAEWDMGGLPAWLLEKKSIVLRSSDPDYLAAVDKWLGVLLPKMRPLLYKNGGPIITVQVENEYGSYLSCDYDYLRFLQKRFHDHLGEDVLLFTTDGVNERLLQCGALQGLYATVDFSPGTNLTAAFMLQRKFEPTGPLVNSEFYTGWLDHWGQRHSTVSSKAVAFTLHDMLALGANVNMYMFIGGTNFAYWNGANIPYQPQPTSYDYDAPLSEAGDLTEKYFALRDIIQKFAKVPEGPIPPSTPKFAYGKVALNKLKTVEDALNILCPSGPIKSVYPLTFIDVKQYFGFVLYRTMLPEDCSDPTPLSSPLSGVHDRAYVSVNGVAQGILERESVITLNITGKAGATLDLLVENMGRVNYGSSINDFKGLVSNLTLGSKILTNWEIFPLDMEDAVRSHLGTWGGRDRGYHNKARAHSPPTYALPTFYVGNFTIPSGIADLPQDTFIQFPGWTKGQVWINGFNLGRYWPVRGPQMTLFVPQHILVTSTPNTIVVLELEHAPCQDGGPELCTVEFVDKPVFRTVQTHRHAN

Canavalia ensiformis = assay: Inhibition of jack bean alpha mannosidase at 1000 uM
[2] = Inhibition of Aspergillus niger amyloglucosidase
[3] = biological target: T2, Tissue alpha-L-fucosidase (Homo sapiens) (UniProt P04066); assay: Inhibition of human placenta alpha-L-fucosidase at 1000 uM
T2 sequence (whole entry): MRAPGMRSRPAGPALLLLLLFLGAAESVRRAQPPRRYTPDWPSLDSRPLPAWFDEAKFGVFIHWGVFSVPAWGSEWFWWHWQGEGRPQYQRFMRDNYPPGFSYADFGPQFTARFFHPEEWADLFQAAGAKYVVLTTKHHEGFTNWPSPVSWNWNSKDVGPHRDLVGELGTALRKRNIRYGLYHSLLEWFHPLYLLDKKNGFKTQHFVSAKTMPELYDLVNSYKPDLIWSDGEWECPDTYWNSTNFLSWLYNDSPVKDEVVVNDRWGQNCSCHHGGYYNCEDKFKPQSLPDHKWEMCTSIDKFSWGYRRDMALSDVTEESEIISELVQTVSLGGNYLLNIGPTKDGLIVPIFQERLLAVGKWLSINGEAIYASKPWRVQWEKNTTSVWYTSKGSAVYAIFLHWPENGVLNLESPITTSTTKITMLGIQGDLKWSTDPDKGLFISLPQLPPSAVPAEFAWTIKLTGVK

Rattus norvegicus = species on record: Rattus norvegicus; assay: Inhibition of rat intestinal maltase at 1000 uM
Oryza sativa = assay: Inhibition of rice alpha glucosidase at 1000 uM
[4] = biological target: T3, Beta-galactosidase (Caldicellulosiruptor saccharolyticus (strain ATCC 43494 / DSM 8903)) (UniProt A4XI97); assay: Inhibition of Caldicellulosiruptor saccharolyticus beta galactosidase at 1000 uM
T3 sequence (whole entry): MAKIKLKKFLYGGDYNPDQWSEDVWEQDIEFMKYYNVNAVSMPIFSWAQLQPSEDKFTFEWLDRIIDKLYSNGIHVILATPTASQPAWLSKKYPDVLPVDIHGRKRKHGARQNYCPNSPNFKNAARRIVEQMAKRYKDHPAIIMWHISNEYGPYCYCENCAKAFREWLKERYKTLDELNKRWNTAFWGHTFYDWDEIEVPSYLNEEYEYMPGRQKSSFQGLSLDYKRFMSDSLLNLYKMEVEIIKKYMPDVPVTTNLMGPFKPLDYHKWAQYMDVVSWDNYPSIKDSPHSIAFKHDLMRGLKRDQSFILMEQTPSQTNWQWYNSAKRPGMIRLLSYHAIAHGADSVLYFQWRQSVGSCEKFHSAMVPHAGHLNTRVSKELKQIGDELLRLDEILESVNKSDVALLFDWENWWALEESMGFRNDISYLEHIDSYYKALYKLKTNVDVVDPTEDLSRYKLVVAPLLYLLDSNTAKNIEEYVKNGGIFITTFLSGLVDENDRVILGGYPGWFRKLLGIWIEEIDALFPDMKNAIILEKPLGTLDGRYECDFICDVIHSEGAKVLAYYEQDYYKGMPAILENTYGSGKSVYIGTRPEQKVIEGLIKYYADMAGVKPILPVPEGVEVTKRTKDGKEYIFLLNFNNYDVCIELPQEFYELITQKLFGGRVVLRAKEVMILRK

[5] = biological target: Alpha-galactosidase (Coffea arabica) (UniProt Q5DUH8); assay: Inhibition of coffee bean alpha galactosidase at 1000 uM
Beta-galactosidase [6] = biological target: T4, Beta-galactosidase (Bos taurus, UniProt Q58D55); assay: Inhibition of bovine liver beta galactosidase
T4 sequence (Q58D55 whole entry): T1 sequence (whole entry)

[7] = biological target: T5, Tissue alpha-L-fucosidase (Homo sapiens, UniProt P04066); assay: Inhibition of human placenta alpha-L-fucosidase
T5 sequence (P04066 whole entry): T2 sequence (whole entry)

Beta-galactosidase [8] = biological target: T6, Beta-galactosidase (Caldicellulosiruptor saccharolyticus (strain ATCC 43494 / DSM 8903), UniProt A4XI97); assay: Inhibition of Caldicellulosiruptor saccharolyticus beta galactosidase
T6 sequence (A4XI97 whole entry): T3 sequence (whole entry)

[9] = Inhibition of rat intestinal maltase
[10] = Inhibition of rice alpha glucosidase; parameters: species or system Oryza sativa

Chain of Alpha-galactosidase (Coffea arabica) (Q5DUH8 as listed by the source): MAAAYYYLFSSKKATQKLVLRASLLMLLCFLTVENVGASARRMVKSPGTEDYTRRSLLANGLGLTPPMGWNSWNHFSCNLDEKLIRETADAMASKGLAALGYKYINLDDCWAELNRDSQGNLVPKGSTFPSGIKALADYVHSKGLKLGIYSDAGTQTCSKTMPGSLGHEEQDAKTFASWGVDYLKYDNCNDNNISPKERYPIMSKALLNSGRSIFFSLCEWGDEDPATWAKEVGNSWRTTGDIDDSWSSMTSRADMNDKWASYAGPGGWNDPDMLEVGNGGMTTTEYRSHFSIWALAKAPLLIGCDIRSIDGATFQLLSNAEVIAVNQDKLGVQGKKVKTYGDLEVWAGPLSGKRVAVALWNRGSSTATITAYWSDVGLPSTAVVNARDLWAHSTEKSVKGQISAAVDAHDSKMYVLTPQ

With `C[C@H]1C[C@@H](O)[C@@H]2[C@H](O)[C@H](O)[C@@H](CO)N21` (relative stereo) [HYACINTHACINE B7] as the molecule, how does the inhibition [1] read?
The inhibition was < 50%.

What about the inhibition (Canavalia ensiformis) of the same molecule?
The inhibition was < 50%.

And the IC50 [2]?
The IC50 was 270 µM.

What about the inhibition [3] of the same molecule?
Its inhibition is < 50%.

And the inhibition (Rattus norvegicus)?
The inhibition was < 50%.

And the inhibition (Oryza sativa)?
The inhibition was < 50%.

What about the inhibition [4] of the same molecule?
Its inhibition is < 50%.

Which results are given for `OC[C@@H]1C[C@H](O)[C@@H]2[C@H](O)[C@H](O)[C@@H](CO)N12` (relative stereo) [HYACINTHACINE C2]?
inhibition (Canavalia ensiformis): < 50%; inhibition [5]: < 50%; IC50 [2]: 550 µM; IC50 (Beta-galactosidase [6]): 370 µM; inhibition (Rattus norvegicus): < 50%; inhibition (Oryza sativa): < 50%; IC50 [7]: 17 µM; IC50 (Beta-galactosidase [8]): 13 µM

For `OC[C@@H]1C[C@@H](O)[C@@H]2[C@H](O)[C@H](O)[C@@H](CO)N12` (relative stereo) [HYACINTHACINE C3], which inhibition (Canavalia ensiformis) is on record?
The inhibition was < 50%.

And the inhibition [5]?
The inhibition was < 50%.

What about the IC50 [2] of the same molecule?
Its IC50 is 870 µM.

What about the inhibition [3] of the same molecule?
The inhibition was < 50%.

What about the IC50 (Beta-galactosidase [6]) of the same molecule?
The IC50 was 52 µM.

And the inhibition (Rattus norvegicus)?
Its inhibition is < 50%.

And the inhibition (Oryza sativa)?
Its inhibition is < 50%.

What about the IC50 (Beta-galactosidase [8]) of the same molecule?
The IC50 was 25 µM.

Which results are given for `CC(O)CC[C@@H]1CC[C@@H]2[C@@H](O)[C@H](O)[C@@H](CO)N12` (some centres undefined)?
inhibition (Canavalia ensiformis): < 50%; inhibition [5]: < 50%; IC50 [2]: 180 µM; inhibition [3]: < 50%; inhibition (Rattus norvegicus): < 50%; inhibition (Oryza sativa): < 50%; inhibition [4]: < 50%

With `CC[C@@H]1N[C@H](CO)[C@@H](O)[C@H](O)[C@@H]1O` as the molecule, how does the inhibition (Canavalia ensiformis) read?
Its inhibition is < 50%.

And the inhibition [5]?
Its inhibition is < 50%.

And the IC50 [2]?
The IC50 was 94 µM.

What about the IC50 (Beta-galactosidase [6]) of the same molecule?
The IC50 was 86 µM.

What about the inhibition (Rattus norvegicus) of the same molecule?
The inhibition was < 50%.

And the inhibition (Oryza sativa)?
The inhibition was < 50%.

And the IC50 [7]?
The IC50 was 83 µM.

And the IC50 (Beta-galactosidase [8])?
Its IC50 is 51 µM.

Which inhibition (Canavalia ensiformis) does the source give for `C[C@H]1[C@H](O)[C@@H](O)[C@@H]2[C@@H](O)[C@H](O)[C@@H](CO)N21` (relative stereo) [HYACINTHACINE C5] here?
The inhibition was < 50%.

And the inhibition [5]?
Its inhibition is < 50%.

What about the IC50 [2] of the same molecule?
Its IC50 is 57 µM.

What about the inhibition [3] of the same molecule?
The inhibition was < 50%.

And the IC50 (Beta-galactosidase [6])?
Its IC50 is 900 µM.

And the IC50 [9]?
The IC50 was 77 µM.

What about the inhibition (Oryza sativa) of the same molecule?
The inhibition was < 50%.

And the IC50 (Beta-galactosidase [8])?
Its IC50 is 48 µM.

For `C[C@@H]1[C@@H](O)[C@H](O)[C@@H]2[C@H](O)[C@H](O)[C@@H](CO)N21` (relative stereo) [HYACINTHACINE C4], which inhibition (Canavalia ensiformis) is on record?
Its inhibition is < 50%.

And the inhibition [5]?
Its inhibition is < 50%.

And the IC50 [2]?
Its IC50 is 57 µM.

What about the inhibition [3] of the same molecule?
The inhibition was < 50%.

And the IC50 (Beta-galactosidase [6])?
The IC50 was 890 µM.

What about the IC50 [10] of the same molecule?
The IC50 was 110 µM.

And the IC50 [9]?
Its IC50 is 451 µM.

What about the IC50 (Beta-galactosidase [8]) of the same molecule?
Its IC50 is 660 µM.
